Reference: ChEMBL document CHEMBL1130512, “Structure-based design of non-peptidic pyridone aldehydes as inhibitors of interleukin-1 converting enzyme” (Bioorg Med Chem Lett, 1997)
Residues, ends and D or L forms follow the SMILES beside them. *: point of attachment. Hydrocinnamoyl = O=C(CCc1ccccc1)*; Cbz = O=C(OCc1ccccc1)*

Biological target: T1, Caspase-1 (Homo sapiens, UniProt P29466)
T1 sequence (P29466 whole entry): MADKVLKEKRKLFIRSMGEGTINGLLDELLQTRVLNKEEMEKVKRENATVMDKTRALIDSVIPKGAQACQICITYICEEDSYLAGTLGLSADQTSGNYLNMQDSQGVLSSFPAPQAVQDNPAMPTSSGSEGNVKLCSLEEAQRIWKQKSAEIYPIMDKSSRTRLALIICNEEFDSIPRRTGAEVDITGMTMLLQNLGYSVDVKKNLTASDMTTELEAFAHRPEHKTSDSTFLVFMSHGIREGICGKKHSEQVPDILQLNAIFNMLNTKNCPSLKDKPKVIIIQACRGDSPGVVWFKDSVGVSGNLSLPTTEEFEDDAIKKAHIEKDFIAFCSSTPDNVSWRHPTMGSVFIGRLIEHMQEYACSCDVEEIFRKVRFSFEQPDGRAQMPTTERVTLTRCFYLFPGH
Test: Inhibition of IL-1 beta converting enzyme

SMILES	Ki
CC(C)[C@H](NC(=O)OCc1ccccc1)C(=O)NCC(=O)N[C@@H](CC(=O)O)C(=O)O (Cbz-Val-Gly-Asp-OH)	1300 nM
CC(C)[C@H](NC(=O)OCc1ccccc1)C(=O)N[C@@H](C)C(=O)N[C@@H](CC(=O)O)C(=O)O (Cbz-Val-Ala-Asp-OH)	55 nM
CC(=O)N[C@@H](Cc1ccc(O)cc1)C(=O)N[C@H](C(=O)N[C@@H](C)C(=O)N[C@@H](CC(=O)O)C(=O)O)C(C)C	9 nM

Now from value to compound:

Ki	SMILES
54 nM	CC(=O)NC(C(=O)Nc1ccc(Cc2ccccc2)n(CC(=O)N[C@H](C=O)CC(=O)O)c1=O)c1ccc(O)cc1 (stereo partly specified)
900 nM	O=C[C@H](CC(=O)O)NC(=O)Cn1c(-c2ccccc2)ccc(NC(=O)CCc2ccccc2)c1=O
54 nM	CC(C)[C@H](NC(=O)CCc1ccccc1)C(=O)N[C@@H](C)C(=O)N[C@@H](CC(=O)O)C(=O)O (Hydrocinnamoyl-Val-Ala-Asp-OH)
